One assay concerns GPR43/FFAR2. Kind of assay: PCR gene expression of GPR43/FFAR2 in PBMCs incubated with single HMOs. Type of assay: cell-based, human. The conditions noted are these: PBMCs of 3 donors, 0.5 mg/ml HMO, 5 h, average, control set as 1, GAPDH reference gene. On the procedure:
(§1) The effect of single HMOs on the expression of genes relevant to cholesterol metabolism and atherogenesis was tested using Peripheral Blood Mononuclear Cells (PBMCs) from 3 donors and incubated those cells with 0.5 g/l of single HMOs. The level of expression was determined using PCR.
(§2) Peripheral blood mononuclear cells (PBMC's) were isolated from a buffy coat using Sepmate tubes. The cells were diluted to a concentration of 1*10^7 cells per ml. The PBMC's were seeded in 6 wells plates and treated with 0.5 g/l of each HMO in PBMC culturing medium for 5 h prior to RNA isolation. Each HMO was mixed with 100 ug/ml final concentration of Polymyxin B to ensure neutralization of possible endotoxin contamination of HMOs, while equal amounts of Polymyxin B were used as a control.
(§3) 500 ng RNA, isolated from PBMCs, was translated into cDNA, using the quantitect reverse transcription kit (Qiagen). Primersets for the regulated genes (shown in the table below), were ordered at Qiagen (Quantitect primer assays). From each condition (PBMCs of 3 donors in control situation and after exposure towards HMOs (5 hrs)) cDNA (100×, 10× for genes which were low expressed) was amplified using the different primersets.
(§4) GAPDH (Glyceraldehyde-3-Phosphate Dehydrogenase) was used as a reference gene to quantify changes of gene expression between the control and the HMO-treated cells.
(§5) • GAPDH: Hs_GAPDH_vb.1_SG QuantiTect Primer Assay • IL19: Hs_IL19_1_SG QuantiTect Primer Assay • CD36: Hs_CD36_3_SG QuantiTect Primer Assay • GPR43/FFAR2: Hs_FFAR2_2_SG QuantiTect Primer Assay • ABCA1: Hs_ABCA1_1_SG QuantiTect Primer Assay
(§6) 19 commercially available HMO's that are present in human milk were tested. All gene expression values were calibrated to the Polymyxin B control of each respective donor (set arbitrary as 1). Average values for each gene compared to the Polymyxin B control are shown below (values above 1.5 fold or below 0.5 fold were considered physiologically relevant).

Another assay deals with CD36. Briefly: PCR gene expression of CD36 in PBMCs incubated with single HMOs. It is filed as cell-based, human. The conditions noted are these: PBMCs of 3 donors, 0.5 mg/ml HMO, 5 h, average, control set as 1, GAPDH reference gene. On the procedure: as §1, §2, §3, §4, §5, §6
In a further assay the test system is IL19. Briefly: PCR gene expression of IL19 in PBMCs incubated with single HMOs. Type of assay: cell-based, human. The settings on record: PBMCs of 3 donors, 0.5 mg/ml HMO, 5 h, average, control set as 1, GAPDH reference gene. On the procedure: as §1, §2, §3, §4, §5, §6
The subject of the next assay is Primary human adipocytes. Briefly: Adipocyte glucose uptake assay (3H-2-deoxyglucose). Type of assay: cell-based. The settings on record: 2 hours incubation; compared with vehicle control DMSO and insulin 100 nM positive control; LPS 2 ng/mL. The text has this:
• 1. Subcutaneous preadipocytes from Zen-Bio Inc were thawed and plated into appropriate experimental plate format. • 2. Upon thawing cells, culturing followed differentiation schedule below: • Day Treatment • 1 Plate cells in PM-1 • 2 Differentiate cells using DM-2 • 9 Feed cells Maintenance medium AM-1 • 16 Assay cells for lipid accumulation, lipolysis, glucose uptake or RNAseq. • 1. Primary human adipocytes were differentiated in 96-well isoplates • 2. At 14 days post differentiation, the cells were treated with glucose uptake starvation media (Zen-Bio Inc) overnight. • 3. The next morning, the cells were washed with assay buffer and the cells were treated with compounds in glucose assay buffer containing ^3H-2-deoxyglucose cocktail and the cells were incubated at 37° C., 5% CO2 and allowed to incubate for 2 hours. • 4. After 2 hours, the cells were washed with PBS, lysed, and mixed with Optiphase “Supermix” scintillation fluid (Zen-Bio Inc). The Counts Per Minute (CPM) of each well measured. • Vehicle control: DMSO (control) • Zen Bio Insulin positive control: 100 nM (insulin) • Control for possible endotoxin contamination of pHMOs: […]

A further assay has as its system ABCA1. Briefly: PCR gene expression of ABCA1 in PBMCs incubated with single HMOs. The settings on record: PBMCs of 3 donors, 0.5 mg/ml HMO, 5 h, average, control set as 1, GAPDH reference gene. Type of assay: cell-based, human. On the procedure: as §1, §2, §3, §4, §5, §6
2′FL was included too as it was expected that the most abundant HMO in human milk would show changes in any of these systems. […]

Another assay relates to CD14+ CD36+ PBMC's. Briefly: Cholesterol uptake (Dil oxLDL) by FACS in PBMCs. It is filed as cell-based. The settings on record: 0.5 mg/ml, 4 hrs pre-incubation then 10 ug/ml Dil oxLDL 1 hour; gated on CD14+ CD36+ cells; FIG. 1. Background: In flow cytometry, cells or beads pass a laser one at a time.

3-Fucosyllactose [3FL]: the “FFAR2 gene expression relative to Polymyxin B control” value with GPR43/FFAR2 turned out to be 1.18 fold. In the assay with CD36, the “CD36 gene expression relative to Polymyxin B control” value is 0.98 fold. Further, in the assay with IL19, the “IL19 gene expression relative to Polymyxin B control” value amounted to 1.06 fold.

Take `CC(=O)N[C@H]1[C@H](O[C@H]2[C@@H](O)[C@@H](CO)O[C@@H](O[C@H]3[C@H](O)[C@@H](O)C(O)O[C@@H]3CO)[C@@H]2O)O[C@H](CO)[C@@H](O[C@@H]2O[C@H](CO)[C@H](O)[C@H](O)[C@H]2O)[C@@H]1O` (mixture of isomers) [LNnT, lacto-N-neotetraose]: in the assay on GPR43/FFAR2, the “FFAR2 gene expression relative to Polymyxin B control” value is recorded as 0.93 fold. The “CD36 gene expression relative to Polymyxin B control” value with CD36 worked out at 0.93 fold. The “IL19 gene expression relative to Polymyxin B control” value with IL19 is 0.93 fold.

Consider `C[C@@H]1O[C@@H](O[C@H]2[C@H](O[C@H]3[C@H](O)[C@@H](O)C(O)O[C@@H]3CO)O[C@H](CO)[C@H](O)[C@@H]2O)[C@@H](O)[C@H](O)[C@@H]1O` (stereo partly drawn) [2′FL, 2′-fucosyllactose], for which the “glucose uptake (CPM of 3H-2-deoxyglucose)” value in the assay on Primary human adipocytes was “not significantly different from the vehicle control”. For the same molecule, in the assay on ABCA1, the “ABCA1 gene expression relative to Polymyxin B control” value is recorded as 1.09 fold. For the same molecule, in the assay on CD14+ CD36+ PBMC's, the “cholesterol level in the cell, % of original value (MFI vs no glycan control with Dil oxLDL)” value was “about 91%”. Also, the “FFAR2 gene expression relative to Polymyxin B control” value in the assay with GPR43/FFAR2 is listed as 0.72 fold. Further, the “CD36 gene expression relative to Polymyxin B control” value in the assay on CD36 stood at 0.67 fold.

Regarding `CC(=O)N[C@H]1[C@H]([C@H](O)[C@H](O)CO)O[C@@](O[C@H]2[C@@H](O)[C@@H](CO)O[C@@H](O[C@H]3[C@H](O[C@@H]4O[C@@H](C)[C@@H](O)[C@@H](O)[C@@H]4O)[C@@H](O)C(O)O[C@@H]3CO)[C@@H]2O)(C(=O)O)C[C@@H]1O` (stereo partly drawn) [3S3FL], the “FFAR2 gene expression relative to Polymyxin B control” value in the assay on GPR43/FFAR2 came out at 1.03 fold. Besides, the “CD36 gene expression relative to Polymyxin B control” value with CD36 was 0.90 fold. Also, in the assay on IL19, the “IL19 gene expression relative to Polymyxin B control” value came to 0.94 fold.

Turning to `CC(=O)N[C@H]1[C@H]([C@H](O)[C@H](O)CO)O[C@@](O[C@H]2[C@@H](O)[C@@H](CO)O[C@@H](O[C@H]3[C@H](O)[C@@H](O)C(O)O[C@@H]3CO)[C@@H]2O)(C(=O)O)C[C@@H]1O` (stereo partly drawn) [3′SL, 3′-Sialyllactose], the “FFAR2 gene expression relative to Polymyxin B control” value with GPR43/FFAR2 is 1.25 fold. For the same molecule, the “CD36 gene expression relative to Polymyxin B control” value in the assay with CD36 is given as 0.87 fold. The “IL19 gene expression relative to Polymyxin B control” value in the assay on IL19 was determined as 1.24 fold.

Take `CC(=O)N[C@H]1[C@H]([C@H](O)[C@H](O)CO)O[C@@](OC[C@H]2O[C@@H](O[C@H]3[C@H](O)[C@@H](O)[C@H](O)O[C@@H]3CO)[C@H](O)[C@@H](O)[C@H]2O)(C(=O)O)C[C@@H]1O` [6′SL, 6′-Sialyllactose]: the “FFAR2 gene expression relative to Polymyxin B control” value in the assay with GPR43/FFAR2 stood at 1.83 fold. Moreover, in the assay with CD36, the “CD36 gene expression relative to Polymyxin B control” value is on record as 0.93 fold. The “IL19 gene expression relative to Polymyxin B control” value in the assay with IL19 is recorded as 1.05 fold.

Regarding `CC(=O)N[C@H]1[C@H](O[C@H]2[C@@H](O)[C@@H](CO)O[C@@H](O[C@@H]([C@H](O)[C@@H](O)C=O)[C@H](O)CO)[C@@H]2O)O[C@H](CO[C@]2(C(=O)O)C[C@H](O)[C@@H](NC(C)=O)[C@H]([C@H](O)[C@H](O)CO)O2)[C@@H](O)[C@@H]1O[C@@H]1O[C@H](CO)[C@H](O)[C@H](O[C@]2(C(=O)O)C[C@H](O)[C@@H](NC(C)=O)[C@H]([C@H](O)[C@H](O)CO)O2)[C@H]1O` [DSLNT, disialyllacto-N-tetraose], the “ABCA1 gene expression relative to Polymyxin B control” value in the assay with ABCA1 was found to be 2.02 fold.

With `C[C@@H]1O[C@@H](O[C@H]2[C@H](O[C@H]3[C@H](O[C@@H]4O[C@@H](C)[C@@H](O)[C@@H](O)[C@@H]4O)[C@@H](O)C(O)O[C@@H]3CO)O[C@H](CO)[C@H](O)[C@@H]2O)[C@@H](O)[C@H](O)[C@@H]1O` (stereo partly drawn) [LDFT], in the assay with GPR43/FFAR2, the “FFAR2 gene expression relative to Polymyxin B control” value worked out at 1.64 fold. In addition, the “CD36 gene expression relative to Polymyxin B control” value with CD36 worked out at 1.00 fold. Moreover, the “IL19 gene expression relative to Polymyxin B control” value with IL19 is 0.75 fold.

As to `CC(=O)N[C@H]1[C@H](O[C@H]2[C@@H](O)[C@@H](CO)O[C@@H](O[C@H]3[C@H](O)[C@@H](O)C(O)O[C@@H]3CO)[C@@H]2O)O[C@H](CO)[C@@H](O)[C@@H]1O[C@@H]1O[C@H](CO)[C@H](O)[C@H](O)[C@H]1O` (stereo partly drawn) [LNT, lacto-N-tetraose], the “FFAR2 gene expression relative to Polymyxin B control” value with GPR43/FFAR2 was 0.93 fold. Further, in the assay on CD36, the “CD36 gene expression relative to Polymyxin B control” value amounted to 0.93 fold. Also, the “IL19 gene expression relative to Polymyxin B control” value with IL19 is listed as 0.93 fold.

In the case of `CC(=O)N[C@H]1[C@H](O[C@H]2[C@@H](O)[C@@H](CO)O[C@@H](O[C@@H]([C@H](O)[C@@H](O)C=O)[C@H](O)CO)[C@@H]2O)O[C@H](CO[C@]2(C(=O)O)C[C@H](O)[C@@H](NC(C)=O)[C@H]([C@H](O)[C@H](O)CO)O2)[C@@H](O)[C@@H]1O[C@@H]1O[C@H](CO)[C@H](O)[C@H](O)[C@H]1O` [LSTb, sialyllacto-N-tetraose b], the “CD36 gene expression relative to Polymyxin B control” value in the assay on CD36 stood at 0.75 fold. The “IL19 gene expression relative to Polymyxin B control” value in the assay with IL19 turned out to be 1.31 fold.

Consider `CC(=O)N[C@H]1[C@H](O[C@H]2[C@@H](O)[C@@H](CO)O[C@@H](O[C@H]3[C@H](O)[C@@H](O)C(O)O[C@@H]3CO)[C@@H]2O)O[C@H](CO)[C@@H](O[C@@H]2O[C@H](CO[C@]3(C(=O)O)C[C@H](O)[C@@H](NC(C)=O)[C@H]([C@H](O)[C@H](O)CO)O3)[C@H](O)[C@H](O)[C@H]2O)[C@@H]1O` (stereo partly drawn) [LSTc], for which the “FFAR2 gene expression relative to Polymyxin B control” value in the assay with GPR43/FFAR2 is reported as 1.02 fold. Further, the “CD36 gene expression relative to Polymyxin B control” value in the assay on CD36 is recorded as 0.90 fold. Besides, the “IL19 gene expression relative to Polymyxin B control” value in the assay on IL19 was 1.25 fold.

With LNFP-I, the “FFAR2 gene expression relative to Polymyxin B control” value in the assay with GPR43/FFAR2 came out at 0.86 fold. Also, the “CD36 gene expression relative to Polymyxin B control” value in the assay on CD36 was determined as 0.85 fold. For the same molecule, the “IL19 gene expression relative to Polymyxin B control” value in the assay on IL19 is 1.89 fold.

With Lacto-N-fucopentaose III [LNFP-III], the “CD36 gene expression relative to Polymyxin B control” value is 0.08 fold in the assay with CD36 and “reduce” in the assay with CD36 (listed as LNF-III).

As for Lipopolysaccharide [LPS], in the assay on Primary human adipocytes, the “glucose uptake (CPM of 3H-2-deoxyglucose)” value is “did not upregulate glucose uptake at all”.

As for lactodifucoheaxose II [LNDFH-II], the “ABCA1 gene expression relative to Polymyxin B control” value in the assay on ABCA1 came out at 2.16 fold.

The values above are taken from patent US20240197772A1, “COMPOSITIONS COMPRISING ONE OR MORE HMO'S WITH A CORE OF LacNAc-Lac” (FrieslandCampina Nederland B.V., priority 2020, published 2024).
